Test results from patent US20230339937A1, “CONDENSED RING COMPOUNDS THAT INHIBIT H-PGDS” (SATO PHARMACEUTICAL CO., LTD., priority 2020, published 2023).

Target: T1, Recombinant human H-PGDS (Homo sapiens, UniProt O60760)
T1 construct: made in house; host or cells: E. coli
Assay: H-PGDS inhibitory activity (prostaglandin D2 production from prostaglandin H2, measured by LC-MS/MS)
Type: biochemical
Conditions: recombinant human H-PGDS 1.0 nM expressed in E. coli; prostaglandin H2 25 μM; preincubated 15 minutes on ice, reacted on ice for 1 minute; concentration that inhibits prostaglandin D2 production by 50%
Description: The H-PGDS inhibitory activity of each Example compound was measured according to the method reported by LIN, Jiang. et al. (NO 2007/041634).
Recombinant human H-PGDS (final concentration: 1.0 nM) expressed in E. coli was mixed in an assay buffer containing 20 mM Tris-HCl (pH 8.0), 2 mM magnesium chloride, 2 mM reduced glutathione, and 0.5 mg/mL γ-globulin, and 150 μL of the mixture was dispensed into a 8-strip PCR tube (BM Equipment Co., Ltd.). Test compounds (Example compounds) (16.5 μL) at various concentrations dissolved in DMSO were added and the mixture was preincubated for 15 minutes on ice.
Prostaglandin H2 (final concentration: 25 μM) (Cayman Chemical) was dispensed into another 8-strip PCR tube, and the solvent was dried and solidified using a vacuum concentrator (Thermo Fisher Scientific). To the dried and solidified prostaglandin H2 was added 50 μL of the assay buffer containing H-PGDS and each test compound after the preincubation, and the mixture was reacted on ice for 1 minute. 45 μL of this mixture was added to 45 μL of a stop solution (50 mM aqueous citric acid solution containing iron chloride at a final concentration of 4 mg/mL) to stop the reaction. Then, the reaction solution was deproteinized, added to a 96 square deep well plate (SHONANMARUHACHI STEC Co., Ltd.), and the prostaglandin D2 concentration in the reaction solution was measured by LC-MS/MS. ACQUITY (registered trademark) TQD (Waters) was used as a measuring instrument.
Prostaglandin Da production activity (f) in the group with each test compound when a value obtained by subtracting the amount of production of prostaglandin D2 in the group without enzyme, which is non-specific production of prostaglandin D2, from the amount of production of prostaglandin Da in the group without test compound (DMSO-addition group) in each 8-strip PCR tube is 100% was calculated.

T1 sequence (O60760 whole entry): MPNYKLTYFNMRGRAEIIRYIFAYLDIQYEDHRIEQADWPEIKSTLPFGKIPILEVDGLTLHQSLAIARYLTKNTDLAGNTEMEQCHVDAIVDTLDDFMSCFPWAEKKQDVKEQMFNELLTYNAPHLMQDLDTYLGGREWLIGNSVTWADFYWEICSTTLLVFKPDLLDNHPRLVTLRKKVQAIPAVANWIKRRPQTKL

IC50 [nM]	SMILES
4.2	O=C(N[C@H]1CC[C@H](OC(F)F)CC1)c1ccc(-c2nccc3occc23)cc1 [Example 263, N-[trans-4-(difluoromethoxy)cyclohexyl]-4-(furo[3,2-c]pyridin-4-yl)benzamide]
3.2	Cn1nccc1N1CCC(NC(=O)c2ccc(-c3nccc4occc34)cc2)CC1 [Example 250, 4-(furo[3,2-c]pyridin-4-yl)-N-[1-(1-methyl-1H-pyrazol-5-yl)piperidin-4-yl]benzamide]
1.3	O=C(N[C@H]1CC[C@H](NCC(F)F)CC1)c1ccc(-c2nccc3occc23)c(F)c1 [Example 326, N-{trans-4-[(2,2-difluoroethyl)amino]cyclohexyl}-3-fluoro-4-(furo[3,2-c]pyridin-4-yl)benzamide]
2.5	COCCO[C@H]1CC[C@H](NC(=O)c2ccc(-c3nccc4occc34)cc2)CC1 [Example 311, 4-(furo[3,2-c]pyridin-4-yl)-N-[trans-4-(2-methoxyethoxy)cyclohexyl]benzamide]
13	O=C(N[C@H]1CCCC[C@@H]1O)c1ccc(-c2nccc3occc23)cc1 (relative stereo) [Example 274, 4-(furo[3,2-c]pyridin-4-yl)-N-(trans-2-hydroxycyclohexyl)benzamide]
2.1	O=C1CCC(NC(=O)c2ccc(-c3nccc4occc34)cc2)CC1 [Example 303, 4-(furo[3,2-c]pyridin-4-yl)-N-(4-oxocyclohexyl)benzamide]
0.9	[2H]C([2H])(O)c1cc2occc2c(-c2ccc(C(=O)N[C@H]3CC[C@H](C(C)(C)O)CC3)cc2)n1 [Example 320, 4-[6-(hydroxymethyl-d2)furo[3,2-c]pyridin-4-yl]-N-[trans-4-(2-hydroxypropan-2-yl)cyclohexyl]benzamide]
2.4	O=C(N[C@H]1CC[C@](O)(C2CC2)CC1)c1ccc(-c2nccc3occc23)cc1 [Example 291, N-(cis-4-cyclopropyl-4-hydroxycyclohexyl)-4-(furo[3,2-c]pyridin-4-yl)benzamide]
1.6	O=C(N[C@@H]1CCC[C@H](O)CC1)c1ccc(-c2nccc3occc23)cc1 (relative stereo) [Example 293, 4-(furo[3,2-c]pyridin-4-yl)-N-(cis-4-hydroxycycloheptyl)benzamide]
2.9	CC(=O)N[C@H]1CC[C@H](NC(=O)c2ccc(-c3nccc4occc34)cc2)CC1 [Example 296, N-(trans-4-acetamidocyclohexyl)-4-(furo[3,2-c]pyridin-4-yl)benzamide]
27	CC(C)(O)[C@]1(O)CC[C@@H](NC(=O)c2ccc(-c3nccc4occc34)cc2)CC1 [Example 350, 4-(furo[3,2-c]pyridin-4-yl)-N-[cis-4-hydroxy-4-(2-hydroxypropan-2-yl)cyclohexyl]benzamide]
3.8	O=C(N[C@@H]1CCC[C@@H](O)C1)c1ccc(-c2nccc3occc23)cc1 (relative stereo) [Example 266, 4-(furo[3,2-c]pyridin-4-yl)-N-(trans-3-hydroxycyclohexyl)benzamide]

Further lines, the molecule ahead of its results:

SMILES	IC50 [nM]
COc1cnc(N2CCC(NC(=O)c3ccc(-c4nccc5occc45)cc3)CC2)nc1 [Example 168, 4-(furo[3,2-c]pyridin-4-yl)-N-[1-(5-methoxypyrimidin-2-yl)piperidin-4-yl]benzamide]	1.7
O=C(NCC1CCCO1)c1ccc(-c2nccc3occc23)cc1 (stereo not drawn) [Example 94, 4-(furo[3,2-c]pyridin-4-yl)-N-[(tetrahydro-furan-2-yl)methyl] benzamide]	12
O=C(N[C@H]1CC[C@H](CO)CC1)c1ccc(-c2nccc3[nH]ccc23)cc1 [Example 3, N-[trans-4-(hydroxymethyl)cyclohexyl]-4-(1H-pyrrolo[3,2-c]pyridin-4-yl)benzamide]	0.63
O=C(N[C@@H]1CN(c2ncc(CO)cn2)C[C@@H]1F)c1ccc(-c2nccc3occc23)cc1 [Example 204, N-{(3R,4S)-4-fluoro-1-[5-(hydroxymethyl)pyrimidin-2-yl]pyrrolidin-3-yl}-4-(furo[3,2-c]pyridin-4-yl)benzamide]	1.1
O=C(NC1CCN(c2cnc(CO)cn2)CC1)c1ccc(-c2nccc3occc23)cc1 [Example 170, 4-(furo[3,2-c]pyridin-4-yl)-N-{1-[5-(hydroxymethyl)pyrazin-2-yl]piperidin-4-yl}benzamide]	6.2
Cc1cccnc1N1CCC(NC(=O)c2ccc(-c3nccc4occc34)cc2)CC1 [Example 153, 4-(furo[3,2-c]pyridin-4-yl)-N-[1-(3-methylpyridin-2-yl)piperidin-4-yl]benzamide]	4.1
O=C(N[C@H]1CCN(c2cc(Cl)ncn2)C1)c1ccc(-c2nccc3occc23)cc1 [Example 227, (S)—N-[1-(6-chloropyrimidin-4-yl)pyrrolidin-3-yl]-4-(furo[3,2-c]pyridin-4-yl)benzamide]	1.4
O=C(NCc1ccc(Cl)cc1)c1ccc(-c2nccc3[nH]ccc23)cc1 [Example 58, N-(4-chlorobenzyl)-4-(1H-pyrrolo[3,2-c]pyridin-4-yl)benzamide]	0.64
O=C(NC1CCC1)c1ccc(-c2nccc3occc23)cc1 [Example 86, N-cyclobutyl-4-(furo[3,2-c]pyridin-4-yl)benzamide]	21
O=C(Nc1cc(C2CC2)[nH]n1)c1ccc(-c2nccc3occc23)cc1 [Example 104, N-(5-cyclopropyl-1H-pyrazol-3-yl)-4-(furo[3,2-c]pyridin-4-yl)benzamide]	8
Cc1cccc(N2CCC(NC(=O)c3ccc(-c4nccc5occc45)cc3)CC2)n1 [Example 152, 4-(furo[3,2-c]pyridin-4-yl)-N-[1-(6-methylpyridin-2-yl)piperidin-4-yl]benzamide]	2.3
O=C(N[C@H]1CCN(c2cnc(CO)cn2)C1)c1ccc(-c2nccc3occc23)cc1 [Example 198, (S)-4-(furo[3,2-c]pyridin-4-yl)-N-{1-[5-(hydroxymethyl)pyrazin-2-yl]pyrrolidin-3-yl}benzamide]	2.3
O=C(NC1CCN(c2cccnn2)CC1)c1ccc(-c2nccc3occc23)cc1 [Example 190, 4-(furo[3,2-c]pyridin-4-yl)-N-[1-(pyridazin-3-yl)piperidin-4-yl]benzamide]	0.76
N#Cc1ccc(CNC(=O)c2ccc(-c3nccc4occc34)cc2)cc1 [Example 74, N-(4-cyanobenzyl)-4-(furo[3,2-c]pyridin-4-yl)benzamide]	6.3
Cc1c(CNC(=O)c2ccc(-c3nccc4[nH]ccc34)cc2)cnn1C [Example 42, N-[(1,5-dimethyl-1H-pyrazol-4-yl)methyl]-4-(1H-pyrrolo[3,2-c]pyridin-4-yl)benzamide]	0.74
CCCCCCNC(=O)c1ccc(-c2nccc3[nH]ccc23)cc1 [Example 6, N-hexyl-4-(1H-pyrrolo[3,2-c]pyridin-4-yl)benzamide]	1.8
CNC(=O)c1ccc(-c2nccc3[nH]ccc23)cc1 [Example 1, N-methyl-4-(1H-pyrrolo[3,2-c]pyridin-4-yl)benzamide]	2.7
NC(=O)c1cnc(N2CCC(NC(=O)c3ccc(-c4nccc5occc45)cc3)CC2)nc1 [Example 174, 2-{4-[4-(furo[3,2-c]pyridin-4-yl)benzamide]piperidin-1-yl}pyrimidine-5-carboxamide]	1.1
O=C(NC1CN(c2ncccn2)C1)c1ccc(-c2nccc3occc23)cc1 [Example 217, 4-(furo[3,2-c]pyridin-4-yl)-N-[1-(pyrimidin-2-yl)azetidin-3-yl]benzamide]	2.4
Cc1cc2occc2c(-c2ccc(C(=O)N[C@H]3CC[C@H](C(C)(C)O)CC3)cc2)n1 [Example 127, N-[trans-4-(2-hydroxypropan-2-yl)cyclohexyl]-4-(6-methylfuro[3,2-c]pyridin-4-yl)benzamide]	1.6
Cn1c(N2CCC(NC(=O)c3ccc(-c4nccc5occc45)cc3)CC2)nccc1=O [Example 183, 4-(furo[3,2-c]pyridin-4-yl)-N-[1-(1-methyl-6-oxo-1,6-dihydropyrimidin-2-yl)piperidin-4-yl]benzamide]	1.7
O=C(Nc1ccccc1F)c1ccc(-c2nccc3occc23)cc1 [Example 110, N-(2-fluorophenyl)-4-(furo[3,2-c]pyridin-4-yl)benzamide]	5.7
CC(C)(O)[C@H]1CC[C@H](NC(=O)c2ccc(-c3nccc4occc34)cc2F)CC1 [Example 126, 2-fluoro-4-(furo[3,2-c]pyridin-4-yl)-N-[trans-4-(2-hydroxypropan-2-yl)cyclohexyl]benzamide]	13
Cc1cc(CNC(=O)c2ccc(-c3nccc4[nH]ccc34)cc2)[nH]n1 [Example 49, N-[(3-methyl-1H-pyrazol-5-yl)methyl]-4-(1H-pyrrolo[3,2-c]pyridin-4-yl)benzamide]	1.2
